Reference: patent US11839623B2, “Antiviral prodrugs and formulations thereof” (BOARD OF REGENTS OF THE UNIVERSITY OF NEBRASKA, priority 2018, dated 2023)

Assays:
[1] = system: monocyte-derived macrophages (MDM); experiment: Macrophage uptake and retention of ABC, NMABC, NPABC; type: cell-based, human; settings: 100 μM, 8 hours loading
Procedure: Macrophage uptake and retention. Human monocytes were obtained by leukapheresis from HIV-1/2 and hepatitis B seronegative donors, and then purified by counter-current centrifugal elutriation as described (Balkundi, et al., Intl. J. Nanomed. (2011) 6:3393-3404; Nowacek, et al., Nanomed. (2009) 4(8):903-917). Human monocytes were plated in a 12-well plate at a density of 1.0×10^6 cells per well using DMEM supplemented with 10% heat-inactivated pooled human serum, 1% glutamine, 10 μg/mL ciprofloxacin, and 50 μg/mL gentamicin. Cells were maintained at 37° C. in a 5% CO2 incubator. After 7 days of differentiation in the presence of 1000 U/mL recombinant human macrophage colony stimulating factor (MCSF), MDM were treated with 100 μM ABC, nanoformulated myristoylated ABC (NMABC; described in PCT/US15/54826), or NPABC. Uptake of drug was assessed by measurements of intracellular drug concentrations at 1, 2, 4 and 8 hours after treatment. For drug retention studies, cells were treated for 8 hours then washed with PBS and maintained with half-media changes every other day until collection at days 1, 5, 10, 15 and 20. For both studies, adherent MDM were washed with PBS, then scraped into PBS, and counted at indicated time points using an Invitrogen Countess Automated Cell Counter (Carlsbad, Calif.). […] Drug content was determined by UPLC-UV/Vis.

[2] = system: HIV-1ADA; experiment: Antiretroviral efficacy of nanoformulations in MDM challenged with HIV-1ADA (RT activity, p24); type: cell-based; settings: 100 μM 8 hours, all time points
Procedure: Antiretroviral efficacy of nanoformulations: Antiviral efficacies of ABC and the ProTide nanoformulations in MDM were assessed as described (Singh, et al., Nanomedicine (2016) 11:1913-1927). MDM were treated with 100 μM different nanoformulations for 8 hours. Then nanoformulation-containing medium was replaced with fresh medium after washing MDM with PBS twice. Half media changes were conducted every other day. At predetermined time points, days 1, 5, 10, 15, 20, 25 and 30, MDM were infected with HIV-1ADA for 4 hours at a MOI of 0.1 and cultured with every-other-day half media changes for an additional 10 days. At day 10, supernatant was collected for RT assay and MDM were fixed with paraformaldehyde and immunostained for expression of HIVp24. Untreated, uninfected MDM served as negative controls (control), while MDM exposed to HIV-1ADA but not treated with nanoformulations, served as positive controls (HIV-1). For NM3ABC, a concentration response study was also conducted. MDM were treated with 1, 10, 25, 50 or 100 μM NM3ABC for 8 hours. The treated MDM were then washed twice with PBS. MDM were cultured for an additional 30 days in fresh media with half media changes every other day. At day 30, MDM were challenged with HIV-1ADA at a MOI of 0.1 for 4 hours. Excess virus was washed out with PBS and MDM were cultured for another 10 days. […]

[3] = system: monocyte-derived macrophages (MDM); experiment: Intracellular CBV-TP in MDM after 100 μM ABC or ProTide nanoformulations (uptake and retention); type: cell-based; settings: human
Procedure: Briefly, MDM were treated with different nanoformulations at a concentration of 100 μM for 1, 2, 4 and 8 hours. At select time points, adherent MDM were collected in 1 mL PBS after washing with 1 mL PBS twice. MDM were pelleted by centrifugation at 3,000 rpm for 8 minutes. The cell pellet was reconstituted in 200 μl methanol and probe sonication (10 seconds) was used to break the cells and extract drugs. After probe sonication, cell debris was pelleted by centrifugation at 14,000 rpm for 10 minutes and 4° C. The supernatant was analyzed for prodrug level using HPLC-UV/Vis. For retention, MDM were treated with 100 μM different nanoformulations for 8 hours. The nanoformulation-containing media were replaced with fresh media after washing MDM with PBS twice. At days 1, 5, 10, 15, 20, 25 and 30, MDM were collected in 1 mL PBS after washing with 1 mL PBS twice. The samples were processed as described above for analysis using HPLC. Intracellular CBV-TP levels were also measured for as an indicator of cell uptake and retention. Briefly, cells were scraped into PBS, pelleted by centrifugation at 3,000 rpm for 8 minutes, and reconstituted in 200 μl 70% methanol. CBV-TP was extracted, and the samples were analyzed by LC-MS/MS as described (Gautam, et al., J. Pharm. Biomed. Anal. (2018) 153:248-259).

[4] = system: HIV-1ADA; experiment: IC50 determination of ABC, MABC, PABC in MDM challenged with HIV-1ADA (RT activity); type: cell-based; settings: Human immunodeficiency virus 1, 240 h, HIV-1ADA MOI 0.1, RT activity day 10, read-out: IC50 on reverse transcriptase
Procedure: Antiretroviral activities. Antiretroviral efficacy was determined by measurements of HIV reverse transcriptase (RT) activity. For IC50 determination, MDM were exposed to various concentrations (0.01-1000 nM) of ABC, MABC or PABC for 1 hour followed by challenge with HIV-1ADA at a multiplicity of infection (MOI) of 0.1 infectious particles per cell for 4 hours. Following viral challenge, cells were washed and incubated with the same concentration of drug used before infection for an additional 10 days in culture. Culture fluids were collected on day 10 for the measurement of RT activity. To assess antiretroviral efficacy, MDM were treated with 100 μM ABC, PABC or NPABC as described above for 8 hours. After treatment, cells were washed with PBS and cultured with fresh media, with half-media exchanges every other day. At 0, 4, 12 hours, and 1, 5, 10, 15 or 20 days after treatment, cells were challenged with HIV-1ADA at an MOI of 0.1 infectious particles per cell for 16 hours. After viral infection, the cells were cultured an additional 10 days with half-media exchanges every other day. Culture fluids were collected for measurement of RT activity. Cells were fixed with 4% PFA and expression of HIV-1 p24 antigen was determined by immunocytochemistry.

eliminated from MDM within [1]: within a day | decrease of CBV-TP from 4 hours to 8 hours [3]: 37% | retention of CBV-TP in MDMs, detected/sustained until day ([3]; 30 day): 5 days | IC50 [4]: 131 nM
Compound: Nc1nc(NC2CC2)c2ncn([C@H]3C=C[C@@H](CO)C3)c2n1 [ABC, abacavir]
protection against viral infection [2]: minimal protection against viral infection
